Source: patent publication US20090023747A1, “Cysteine Protease Inhibitors” (priority 2005, published 2009)
pIC50: −log10 of the molar value.

Legend:
cathepsin S = molecular target: T1, cathepsin S (Homo sapiens, UniProt P25774); test: Cathepsin S Ki determination (boc-Val-Leu-Lys-AMC substrate); assay type: biochemical; settings: baculovirus-expressed human cathepsin S
T1 construct: made in house
Method: The assay uses baculovirus-expressed human cathepsin S and the boc-Val-Leu-Lys-AMC fluorescent substrate available from Bachem in a 384 well plate format, in which 7 test compounds can be tested in parallel with a positive control comprising a known cathepsin S inhibitor comparator.
280 μl/well of 12.5% DMSO are added to rows B-H of two columns of a 96 deep well polypropylene plate. 70 μl/well of substrate is added to row A. 2×250 μl/well of assay buffer (100 mM Na phosphate, 100 mM NaCl, pH 6.5) is added to row A, mixed, and double diluted down the plate to row H.
100 μl/well of assay buffer is added to columns 2-5 and 7-12 of 4 rows of a 96 well V bottom polypropylene plate. 200 μl/well of assay buffer is added to columns 1 and 6.
2 μl of each 10 mM test compound is added to a separate well on row A, columns 1-10. Add 90 μl assay buffer containing 1 mM DTT and 2 nM cathepsin S to each well of rows B-H and 180 μl to row A. Mix row A using a multichannel pipette and double dilute to row G. Mix row H and read in the fluorescent spectrophotometer.
The second test compound is added to column 6 of the top row, the third to column 1 of the second row etc. Add 1 μl of comparator to column 6 of the bottom row. Mix column 1 and double dilute to column 5. Mix column 6 and double dilute to column 10.
Using an 8-channel multistepping pipette set to 5×10 μl, distribute 10 μl/well of substrate to the 384 well assay plate. Distribute the first column of the substrate dilution plate to all columns of the assay plate starting at row A. The tip spacing of the multichannel pipette will correctly skip alternate rows. Distribute the second column to all columns starting at row B.
Using a 12-channel multistepping pipette set to 4×10 μl, distribute 10 μl/well of inhibitor to the 384 well assay plate. Distribute the first row of the inhibitor dilution plate to alternate rows of the assay plate starting at A1. The tip spacing of the multichannel pipette will correctly skip alternate columns. Similarly, distribute the second, third and fourth rows to alternate rows and columns starting at A2, B1 and B2 respectively.
Mix 20 ml assay buffer and 20 μl 1M DTT. Add sufficient cathepsin S to give 2 nM final concentration.
Using the a distributor such as a Multidrop 384, add 30 μl/well to all wells of the assay plate and read in fluorescent spectrophotomoter such as an Ascent.
Fluorescent readings, (excitation and emission wavelengths 390 nm and 460 nm respectively, set using bandpass filters) reflecting the extent of enzyme cleavage of the fluorescent substrate, […] the inhibitor, are linear rate fitted for each well.
Fitted rates for all wells for each inhibitor are fitted to the competitive inhibition equation using SigmaPlot 2000 to determine V, Km and Ki values.
(§1) Potential inhibitors are screened using the above assay with variable concentrations of test compound. Reactions were initiated by addition of enzyme to buffered solutions of substrate and inhibitor. Ki values were calculated according to equation 1
(§2) where v0 is the velocity of the reaction, V is the maximal velocity, S is the concentration of substrate with Michaelis constant of KM, and I is the concentration of inhibitor.

cathepsin K = molecular target: T2, cathepsin K (Homo sapiens, UniProt P43235); test: Determination of cathepsin K proteolytic catalytic activity (fluorogenic peptide substrate); assay type: biochemical; settings: human recombinant enzyme
T2 construct: made in house; host or cells: not fixed: E coli, Pichia or Baculovirus systems named as options
T2 sequence (P43235 115-329): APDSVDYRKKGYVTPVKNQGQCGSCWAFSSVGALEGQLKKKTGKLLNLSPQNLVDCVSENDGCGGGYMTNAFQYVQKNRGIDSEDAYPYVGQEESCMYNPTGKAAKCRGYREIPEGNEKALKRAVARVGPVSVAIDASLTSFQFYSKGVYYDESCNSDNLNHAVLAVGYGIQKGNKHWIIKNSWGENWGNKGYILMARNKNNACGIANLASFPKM
Method: Convenient assays for cathepsin K are carried out using human recombinant enzyme, such as that described in PDB.
The recombinant cathepsin K can be expressed in a variety of commercially available expression systems including E coli, Pichia and Baculovirus systems.
The purified enzyme is activated by removal of the prosequence by conventional methods.
Standard assay conditions for the determination of kinetic constants used a fluorogenic peptide substrate, typically H-D-Ala-Leu-Lys-AMC, and were determined in either 100 mM Mes/Tris, pH 7.0 containing 1 mM EDTA and 10 mM 2-mercaptoethanol or 100 mMNa phosphate, imM EDTA, 0.1% PEG4000 pH 6.5 or 100 mM Na acetate, pH 5.5 containing 5 mM EDTA and 20 mM cysteine, in each case optionally with […] as stabiliser. The enzyme concentration used was 5 nM. The stock substrate solution was prepared at 10 mM in DMSO. Screens were carried out at a fixed substrate concentration of 60 μM and detailed kinetic studies with doubling dilutions of substrate from 250 μM. The total DMSO concentration in the assay was kept below 3%. All assays were conducted at ambient temperature. Product fluorescence (excitation at 390 nm, emission at 460 nm) was monitored with a Labsystems Fluoroskan Ascent fluorescent plate reader. Product progress curves were generated over 15 minutes following generation of AMC product.
as §1, §2

cathepsin L = cathepsin L (Homo sapiens, UniProt P07711); test: Cathepsin L Ki determination (H-D-Val-Leu-Lys-AMC substrate); assay type: biochemical
Method: The procedure above with the following amendments is used for the determination of Ki for cathepsin L.
The enzyme is commercially available human cathepsin L (for example Calbiochem). The substrate is H-D-Val-Leu-Lys-AMC available from Bahcem. The assay buffer is 100 mM sodium acetate 1 mM EDTA, pH5.5) The DMSO stock (10 mM in 100% DMSO) is diluted to 10% in assay buffer. Enzyme is prepared at 5 nM concentration in assay buffer plus 1 mM dithiothreitol just before use. 2 ul of 10 mM inhibitor made up in 100% DMSO is dispensed into row A. 10 ul of 50 uM substrate (=1/200 dilution of 10 mM stock in DMSO, diluted in assay buffer)
as §1, §2

[1] = reference markers for the permeability assay; cited from earlier work

cathepsin L, sequence (P07711 114-333): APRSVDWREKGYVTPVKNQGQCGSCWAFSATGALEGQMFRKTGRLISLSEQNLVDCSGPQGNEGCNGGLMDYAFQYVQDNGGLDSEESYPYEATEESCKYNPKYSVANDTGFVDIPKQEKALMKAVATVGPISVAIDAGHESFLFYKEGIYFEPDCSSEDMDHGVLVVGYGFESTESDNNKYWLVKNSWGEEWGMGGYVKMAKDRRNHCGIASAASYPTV
T1 sequence (P25774 115-331): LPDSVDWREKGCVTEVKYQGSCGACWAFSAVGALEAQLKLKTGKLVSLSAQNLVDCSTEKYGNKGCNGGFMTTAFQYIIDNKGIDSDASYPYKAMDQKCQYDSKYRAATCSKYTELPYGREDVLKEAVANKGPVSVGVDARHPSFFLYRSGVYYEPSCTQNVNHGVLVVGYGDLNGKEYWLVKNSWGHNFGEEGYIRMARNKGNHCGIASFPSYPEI

SMILES	pIC50 (cathepsin S)	pIC50 (cathepsin K)	pIC50 (cathepsin L)	% absorption in man [1] [%]
CSc1ccc(-c2ccc([C@H](N[C@@H](CC(C)C)C(=O)N3C[C@H](F)[C@H]4OCC(=O)[C@H]43)C(F)(F)F)cc2)cc1 [Example 28, (3aS,6S,6aS)-6-Fluoro-4-{(S)-4-methyl-2-[(S)-2,2,2-trifluoro-1-(4′-methylsulfanyl-biphenyl-4-yl)-ethylamino]-pentanoyl}-tetrahydro-furo[3,2-b]pyrrol-3-one]	5.00	7.29	5.26	
CN(Cc1cnc2nc(N)nc(N)c2n1)c1ccc(C(=O)N[C@@H](CCC(=O)O)C(=O)O)cc1 [Methotrexate]				20
N[C@@H](Cc1ccccc1)C(=O)O [L-Phenylalanine]				100
OC[C@@H](O)[C@@H](O)[C@H](O)[C@H](O)CO [Mannitol]				16
CC(C)C[C@H](N[C@@H](c1ccc(-c2csc(N3CCN(C)CC3)n2)cc1)C(F)(F)F)C(=O)N1C[C@H](F)[C@H]2OCC(=O)[C@H]21 [Example 58, (3aS,6S,6aS)-6-Fluoro-4-[(S)-4-methyl-2-((S)-2,2,2-trifluoro-1-{4-[2-(4-methyl-piperazin-1-yl)-thiazol-4-yl]-phenyl}-ethylamino)-pentanoyl]-tetrahydro-furo[3,2-b]pyrrol-3-one]	3.73	> 8.30	3.86	
CC(C)C[C@H](N[C@@H](c1ccc(-c2ccc(F)cc2)cc1)C(F)(F)F)C(=O)N1C[C@H](F)[C@H]2OCC(=O)[C@H]21 [Example 20, (3aS,6S,6aS)-6-Fluoro-4-{(S)-4-methyl-2-[(S)-2,2,2-trifluoro-1-(4′-fluoro-biphenyl-4-yl)-ethylamino]-pentanoyl}-tetrahydro-furo[3,2-b]pyrrol-3-one]	4.43	6.74	4.52	
CC(C)C[C@H](N[C@@H](c1ccc(-c2ccc([S+](C)[O-])cc2)cc1)C(F)(F)F)C(=O)N1C[C@H](F)[C@H]2OCC(=O)[C@H]21 (stereo partly drawn) [Example 29, (3aS,6S,6aS)-6-Fluoro-4-{(S)-4-methyl-2-[(S)-2,2,2-trifluoro-1-(4′-methylsulfoxide-biphenyl-4-yl)-ethylamino]-pentanoyl}-tetrahydro-furo[3,2-b]pyrrol-3-one]	4.57	7.74	3.74	

Continued by rising pIC50 (cathepsin S), values first:

pIC50 (cathepsin S)	pIC50 (cathepsin K)	pIC50 (cathepsin L)	SMILES	% absorption in man [1] [%]
4.44	7.54	4.00	CC(C)C[C@H](N[C@@H](c1ccc(-c2ccc(S(C)(=O)=O)cc2)cc1)C(F)(F)F)C(=O)N1C[C@H](F)[C@H]2OCC(=O)[C@H]21 [Example 14, (3aS,6S,6aS)-6-Fluoro-4-[(S)-4-methyl-2-{(S)-2,2,2-trifluoro-1-(4′-methanesulfonyl-biphenyl-4-yl)-ethylamino]-pentanoyl}-tetrahydro-furo[3,2-b]pyrrol-3-one]	
4.66	7.36	4.60	CC(C)C[C@H](N[C@@H](c1ccc(-c2ccccc2F)cc1)C(F)(F)F)C(=O)N1C[C@H](F)[C@H]2OCC(=O)[C@H]21 [Example 26, (3aS,6S,6aS)-6-Fluoro-4-{(S)-4-methyl-2-[(S)-2,2,2-trifluoro-1-(2′-fluoro-biphenyl-4-yl)-ethylamino]-pentanoyl}-tetrahydro-furo[3,2-b]pyrrol-3-one]	
4.70	6.72	4.70	Cc1ccc(-c2ccc([C@H](N[C@@H](CC(C)C)C(=O)N3C[C@H](F)[C@H]4OCC(=O)[C@H]43)C(F)(F)F)cc2)cc1 [Example 33, (3aS,6S,6aS)-6-Fluoro-4-{(S)-4-methyl-2-[(S)-2,2,2-trifluoro-1-(4′-methyl-biphenyl-4-yl)-ethylamino]-pentanoyl}-tetrahydro-furo[3,2-b]pyrrol-3-one]	
4.72	7.25	4.03	CC(C)C[C@H](N[C@@H](c1ccc(-c2cccc(S(C)(=O)=O)c2)cc1)C(F)(F)F)C(=O)N1C[C@H](F)[C@H]2OCC(=O)[C@H]21 [Example 18, (3aS,6S,6aS)-6-Fluoro-4-{(S)-4-methyl-2-[(S)-2,2,2-trifluoro-1-(3′-methanesulfonyl-biphenyl-4-yl)-ethylamino]-pentanoyl}-tetrahydro-furo[3,2-b]pyrrol-3-one]	
4.72	7.15	4.54	COc1ccc(-c2ccc([C@H](N[C@@H](CC(C)C)C(=O)N3C[C@H](F)[C@H]4OCC(=O)[C@H]43)C(F)(F)F)cc2)cc1 [Example 31, (3aS,6S,6aS)-6-Fluoro-4-{(S)-4-methyl-2-[(S)-2,2,2-trifluoro-1-(4′-methoxy-biphenyl-4-yl)-ethylamino]-pentanoyl}-tetrahydro-furo[3,2-b]pyrrol-3-one]	
